Seven molecules from patent US5541186A, “Sulfonylaminopyrimidines” (Hoffmann-La Roche Inc., priority 1993, dated 1996) can be followed below.

One may read the EC50 as the concentration needed to bring the measured effect to its halfway point.

The test system of assay [1] is endothelin-induced contractions in isolated rat aorta rings. Nature of the assay: Inhibition of endothelin-induced contractions in isolated rat aorta rings. In kind it is cell-based, rat (adult Wistar-Kyoto). Conditions: endothelin-1, no antagonist; half-maximum contraction; read-out: EC50 of endothelin in the absence of test compounds. As for the experimental part: II. Inhibition of endothelin-induced contractions in isolated rat aorta rings
Rings with a length of 5 mm were cut out from the thorax aorta of adult Wistar-Kyoto rats. The endothelium was removed by lightly rubbing the internal surface. Each ring was immersed at 37° C. in 10 ml of Krebs-Henseleit solution in an isolated bath while gassing with 95% O2 and 5% CO2. The isometric stretching of the tings was measured. The rings were stretched to a pre-tension of 3 g. After incubation for 10 minutes with the test compound or vehicle cumulative dosages of endothelin-1 were added. The activity of the test compound was ascertained by the observed shift to the right of the dosage-activity curve of endothelin-1 in the presence of different concentrations of antagonist. This shift to the right (or "dose ratio", DR) corresponds to the quotient from the EC50 values of endothelin-1 in the presence and in the absence of antagonist, with the EC50 value denoting the endothelin concentration required for a half-maximum contraction.
The corresponding PA2 value, which is a measure of the activity of the test compound, was calculated using a computer programme according to the following equation from the "dose ratio" DR for each individual dosage-activity curve.
pA2 =log(DR-1)-log(antagonist-concentration)
The EC50 of endothelin in the absence of test compounds is 0.3 nM.

In another assay the target is T1, human ETA receptors (Homo sapiens, UniProt P25101).
T1 construct: made in house
T1 sequence (P25101 21-427): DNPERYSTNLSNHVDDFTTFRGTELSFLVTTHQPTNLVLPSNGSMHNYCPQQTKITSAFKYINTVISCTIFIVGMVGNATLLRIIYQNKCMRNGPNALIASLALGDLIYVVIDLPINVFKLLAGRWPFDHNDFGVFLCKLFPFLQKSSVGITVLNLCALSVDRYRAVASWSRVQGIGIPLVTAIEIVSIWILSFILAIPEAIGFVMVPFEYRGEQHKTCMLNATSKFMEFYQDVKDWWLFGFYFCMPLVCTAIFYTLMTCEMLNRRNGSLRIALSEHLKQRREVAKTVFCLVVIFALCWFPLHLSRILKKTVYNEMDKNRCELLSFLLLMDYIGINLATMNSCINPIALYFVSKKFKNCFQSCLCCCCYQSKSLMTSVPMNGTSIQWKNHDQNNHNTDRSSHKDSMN
Nature of the assay: Inhibition of endothelin binding to recombinant ETA receptors. The settings on record: 125I-endothelin 20 pM; 20° C. for 2 hours or 4° C. for 24 hours; baculovirus-insect cell membranes; read-out: IC50 (concentration required to inhibit 50% of the specific binding of 125I-endothelin). The method, then:
I: Inhibition of endothelin binding to recombinant ETA receptors
A cDNA coding for human ETA receptors of human placenta was cloned (M. Adachi, Y.-Y. Yang, Y. Furuichi and C. Miyamoto, BBRC 180, 1265-1272) and expressed in the baculovirus-insect cell system. Baculovirus-infected insect cells from a 23 l fermenter are centrifuged off (3000×g, 15 minutes, 4° C.) 60 hours after the infection, re-suspended in Tris buffer (5 mM, pH 7.4, 1 mM MgCl2) and again centrifuged. After a further re-suspension and centrifugation the cells are suspended in 800 ml of the same buffer and […] at -120° C. The cells disintegrate when the suspension in this hypotonic buffer mixture is thawed. After a repeated freeze-drying/thawing cycle the suspension is homogenized and centrifuged (25000 ×g, 15 minutes, 4° C.). After suspension in Tris buffer (75 mM, pH 7.4, 25 mM MgCl2, 250 mM saccharose) 1 ml aliquots (protein content about 3.5 mg/ml) are stored at -85° C.
For the binding assay, the […] membrane preparations are thawed and, after centrifugation at 20° C. and 25000 g for 10 minutes, re-suspended in assay buffer (50 mM Tris buffer, pH 7.4, containing 25 mM MnCl2, 1 mM EDTA and 0.5% bovine serum albumin). […] of this membrane suspension containing […] of protein are incubated with […] of ^125 I-endothelin (specific activity 2200 Ci/mMol) in assay buffer (25000 cpm, final concentration 20 pM) and […] of assay buffer containing varying concentrations of test compound. The incubation is carried out at 20° C. for 2 hours or at 4° C. for 24 hours. The separation of free and membrane-bound radio-ligands is carried out by filtration over a glass fiber filter.
The inhibitory activity of compounds of formula I determined in this test procedure is given in Table 1 as the IC50, i.e. as the concentration […] which is required to inhibit 50% of the specific binding of ^125 I-endothelin.

The subject of assay [2] is "stroke-prone", spontaneously hypertensive rats. Nature of the assay: In vivo blood pressure in pathophysiologically relevant rat model (telemetry). The settings on record: 30 mg/kg in gum arabic, by probe. As for the experimental part:
A telemetric system (PA-C40 implant) was implanted into "stroke-prone", spontaneously hypertensive rats under anaesthesia in order that the arterial blood pressure and the heart rate could be measured continuously. The animals were left to recover for 2 weeks after the operation.
The corresponding test compound (30 mg/kg in gum arabic) was finally administered using a probe and the blood pressure was registered continuously. It became evident that compounds of formula I caused a fall in blood pressure, the administration of gum arabic alone (placebo control) having no significant effect on the blood pressure.

Turning to “endothelin: endothelin-1, agonist added in cumulative dosages to the rat aorta rings”, the EC50 in assay [1] was 0.3 nM.

Regarding `COc1ccccc1Oc1c(NS(=O)(=O)c2ccc(C(C)(C)C)cc2)nc(N2CCOCC2)nc1OCCOC(=O)Nc1ccco1` [Example 75, furan-2-ylcarbamicacid 2-[6-(4-tert-butyl-phenylsulfonylamino)-5-(2-methoxy-phenoxy)-2-morpholin-4-yl-pyrimidin-4-yloxy]-ethyl ester], the IC50 on human ETA receptors worked out at 3 nM.

With `COc1ccccc1Oc1c(NS(=O)(=O)c2ccc(C(C)(C)C)cc2)nc(-c2ncccn2)nc1OCCOC(=O)Nc1ccccn1` [Example 70, pyridin-2-ylcarbamic acid 2-[6-(4-tert-butyl-phenylsulfonylamino)-5-(2-methoxy-phenoxy)-2,2'-bipyrimidin-4-yloxy]-ethyl ester], the IC50 on human ETA receptors was 6 nM. In addition, the “% Decrease in the average arterial blood pressure (mm Hg)” value in assay [2] is recorded as 30%.

Turning to `COc1ccc(S(=O)(=O)Nc2ncnc(OCCOC(=O)Nc3ccccn3)c2Oc2ccccc2OC)cc1CCC(=O)N1CCOCC1` [Example 120, pyridin-2-ylcarbamic acid 2-[6-[4-methoxy-3-(3-morpholin-4-yl-3-oxo-propyl)-phenylsulfonylamino]-5-(2-methoxy-phenoxy)-pyrimidin-4-yloxy]-ethyl ester], the IC50 at human ETA receptors came out at 7 nM.

Take `COc1ccc(Cl)c(Oc2c(NS(=O)(=O)c3ccc(C(C)(C)C)cc3)ncnc2OCCNC(=O)Nc2ccncc2)c1` [Example 134]: the IC50 on human ETA receptors is 44 nM.

In the case of `COc1ccc(Cl)c(Oc2c(NS(=O)(=O)c3ccc4c(c3)OCO4)ncnc2OCCOC(=O)OCc2ccccn2)c1` [Example 140, carboxylic acid 2-[6-(1,3-benzodioxol-5-ylsulfonylamino)-5-(2-chloro-5-methoxy-phenoxy)-pyrimidin-4-yloxy]-ethyl ester pyridin-2-ylmethyl ester], on human ETA receptors, the IC50 stood at 9 nM.

Regarding `COCCc1nc(NS(=O)(=O)c2ccc3c(c2)OCO3)c(Oc2cc(OC)ccc2Cl)c(OCCOC(=O)Nc2ccccn2)n1` [Example 10, pyridine-2-ylcarbamic acid 2-[6-(1,3-benzodioxol-5-ylsulfonylamino)-5-(2-chloro-5-methoxy-phenoxy)-2-(2-methoxyethyl)-pyrimidin-4-yloxy]-ethyl ester], the IC50 on human ETA receptors worked out at 1 nM.
